Laboratory results taken from patent US20250243196A1, “CITRON KINASE INHIBITORS” (The Cleveland Clinic Foundation, priority 2021, published 2025).

Key:
Experiment in all cases: KinaseProfiler panel
Assay type in all cases: biochemical
Details in all cases: activity remaining
ALK(h) = ALK(h) (Homo sapiens (Human), UniProt Q9UM73)
Aurora-B(h) = Aurora-B(h) (Homo sapiens (Human), UniProt Q96GD4); set-up: dose or concentration left out as unconfirmed
Bmx(h) = Bmx(h) (Homo sapiens (Human), UniProt P51813); set-up: dose or concentration left out as unconfirmed
BrSK2(h) = BrSK2(h) (Homo sapiens (Human), UniProt Q8IWQ3); set-up: dose or concentration left out as unconfirmed
BTK(h) = BTK(h) (Homo sapiens (Human), UniProt Q06187); set-up: dose or concentration left out as unconfirmed
Sequence of BTK(h) (Q06187 whole entry): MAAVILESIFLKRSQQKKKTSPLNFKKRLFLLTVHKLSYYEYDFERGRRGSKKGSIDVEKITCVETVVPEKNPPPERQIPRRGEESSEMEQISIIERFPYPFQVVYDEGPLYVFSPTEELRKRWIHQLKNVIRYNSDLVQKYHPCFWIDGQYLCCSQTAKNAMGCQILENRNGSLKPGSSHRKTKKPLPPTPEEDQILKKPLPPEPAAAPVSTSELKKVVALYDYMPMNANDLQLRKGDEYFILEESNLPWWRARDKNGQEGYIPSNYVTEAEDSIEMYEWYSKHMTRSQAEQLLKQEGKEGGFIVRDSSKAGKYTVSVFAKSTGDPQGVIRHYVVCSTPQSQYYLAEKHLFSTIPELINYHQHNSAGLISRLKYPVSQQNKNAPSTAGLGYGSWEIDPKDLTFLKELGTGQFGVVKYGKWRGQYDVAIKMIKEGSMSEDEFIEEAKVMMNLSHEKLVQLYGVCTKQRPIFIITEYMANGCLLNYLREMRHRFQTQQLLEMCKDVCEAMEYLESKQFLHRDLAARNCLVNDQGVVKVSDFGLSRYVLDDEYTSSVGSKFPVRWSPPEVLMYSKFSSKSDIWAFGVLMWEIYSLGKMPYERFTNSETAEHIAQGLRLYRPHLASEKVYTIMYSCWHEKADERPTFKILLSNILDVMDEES

CaMKIIγ(h) = CaMKIIγ(h) (Homo sapiens (Human), UniProt Q13555); set-up: dose or concentration left out as unconfirmed
CDK9/cyclin T1(h) = CDK9/cyclin T1(h) (Homo sapiens (Human), UniProt P50750); set-up: dose or concentration left out as unconfirmed
Sequence of CDK9/cyclin T1(h) (P50750 whole entry): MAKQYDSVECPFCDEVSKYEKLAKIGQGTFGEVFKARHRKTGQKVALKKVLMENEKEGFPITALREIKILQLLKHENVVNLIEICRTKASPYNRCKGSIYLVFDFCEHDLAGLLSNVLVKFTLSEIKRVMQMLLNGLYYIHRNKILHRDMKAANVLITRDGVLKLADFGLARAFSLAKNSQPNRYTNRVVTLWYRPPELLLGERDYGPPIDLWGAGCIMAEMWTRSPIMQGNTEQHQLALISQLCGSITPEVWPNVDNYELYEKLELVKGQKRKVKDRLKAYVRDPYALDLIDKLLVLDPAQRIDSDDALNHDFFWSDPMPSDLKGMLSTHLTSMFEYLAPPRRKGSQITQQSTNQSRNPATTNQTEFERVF
Sequence of CDK9/cyclin T1(h) (O60563 whole entry partner): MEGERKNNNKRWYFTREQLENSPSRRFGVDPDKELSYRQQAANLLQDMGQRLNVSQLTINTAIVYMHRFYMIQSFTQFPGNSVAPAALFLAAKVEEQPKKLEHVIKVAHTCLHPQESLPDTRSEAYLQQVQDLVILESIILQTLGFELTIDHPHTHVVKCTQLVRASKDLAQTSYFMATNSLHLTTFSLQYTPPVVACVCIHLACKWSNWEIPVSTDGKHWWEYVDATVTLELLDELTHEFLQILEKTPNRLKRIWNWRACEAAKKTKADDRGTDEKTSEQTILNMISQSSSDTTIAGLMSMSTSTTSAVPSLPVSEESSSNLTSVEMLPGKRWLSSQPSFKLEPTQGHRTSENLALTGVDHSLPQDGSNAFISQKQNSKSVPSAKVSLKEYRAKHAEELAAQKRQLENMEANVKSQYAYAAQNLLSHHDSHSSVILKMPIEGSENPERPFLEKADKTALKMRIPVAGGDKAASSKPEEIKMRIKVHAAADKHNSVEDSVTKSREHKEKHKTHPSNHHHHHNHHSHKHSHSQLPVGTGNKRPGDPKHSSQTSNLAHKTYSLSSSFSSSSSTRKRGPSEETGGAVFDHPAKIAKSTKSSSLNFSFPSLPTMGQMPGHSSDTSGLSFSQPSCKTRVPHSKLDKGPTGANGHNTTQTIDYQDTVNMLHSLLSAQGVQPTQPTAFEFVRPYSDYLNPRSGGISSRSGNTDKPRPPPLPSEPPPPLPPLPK

CHK2(h) = CHK2(h) (Homo sapiens (Human), UniProt O96017); set-up: dose or concentration left out as unconfirmed
CK2(h) = CK2(h) (Homo sapiens (Human), UniProt P68400); set-up: dose or concentration left out as unconfirmed
CLIK1(h) = CLIK1(h) (Homo sapiens (Human), UniProt Q8TDR2); set-up: dose or concentration left out as unconfirmed
CLK2(h) = CLK2(h) (Homo sapiens (Human), UniProt P49760); set-up: dose or concentration left out as unconfirmed
DCAMKL3(h) = DCAMKL3(h) (Homo sapiens (Human), UniProt Q9C098); set-up: dose or concentration left out as unconfirmed
ErbB4(h) = ErbB4(h) (Homo sapiens (Human), UniProt Q15303); set-up: dose or concentration left out as unconfirmed
Fes(h) = Fes(h) (Homo sapiens (Human), UniProt P07332); set-up: dose or concentration left out as unconfirmed
Fyn(h) = Fyn(h) (Homo sapiens (Human), UniProt P06241); set-up: dose or concentration left out as unconfirmed
Sequence of Fyn(h) (P06241 whole entry): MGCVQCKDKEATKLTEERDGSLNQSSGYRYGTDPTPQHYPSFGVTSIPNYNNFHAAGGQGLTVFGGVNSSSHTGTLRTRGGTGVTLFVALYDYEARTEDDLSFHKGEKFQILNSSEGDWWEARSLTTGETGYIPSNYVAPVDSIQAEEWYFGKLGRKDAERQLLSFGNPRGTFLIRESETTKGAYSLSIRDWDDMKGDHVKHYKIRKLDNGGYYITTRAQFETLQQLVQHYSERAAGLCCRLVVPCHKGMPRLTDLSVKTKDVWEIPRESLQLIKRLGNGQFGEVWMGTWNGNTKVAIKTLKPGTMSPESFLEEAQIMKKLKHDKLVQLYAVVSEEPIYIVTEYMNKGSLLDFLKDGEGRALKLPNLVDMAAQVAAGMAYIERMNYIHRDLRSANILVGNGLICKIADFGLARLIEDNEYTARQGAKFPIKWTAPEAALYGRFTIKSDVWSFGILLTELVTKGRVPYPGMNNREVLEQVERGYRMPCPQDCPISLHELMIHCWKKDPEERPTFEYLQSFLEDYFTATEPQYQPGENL

IGF-1R(h) = IGF-1R(h) (Homo sapiens (Human), UniProt P08069); set-up: dose or concentration left out as unconfirmed
IKKα(h) = IKKα(h) (Homo sapiens (Human), UniProt O15111); set-up: dose or concentration left out as unconfirmed
IR(h) = IR(h) (Homo sapiens (Human), UniProt P06213); set-up: dose or concentration left out as unconfirmed
Lck(h) activated = Lck(h) activated (Homo sapiens (Human), UniProt P06239); set-up: dose or concentration left out as unconfirmed
LIMK1(h) = LIMK1(h) (Homo sapiens (Human), UniProt P53667); set-up: dose or concentration left out as unconfirmed
LOK(h) = LOK(h) (Homo sapiens (Human), UniProt O94804); set-up: dose or concentration left out as unconfirmed
MAK(h) = MAK(h) (Homo sapiens (Human), UniProt P20794); set-up: dose or concentration left out as unconfirmed
MAPKAP-K2(h) = MAPKAP-K2(h) (Homo sapiens (Human), UniProt P49137); set-up: dose or concentration left out as unconfirmed
MST2(h) = MST2(h) (Homo sapiens (Human), UniProt Q13188); set-up: dose or concentration left out as unconfirmed
NDR1(h) = NDR1(h) (Homo sapiens (Human), UniProt Q15208); set-up: dose or concentration left out as unconfirmed
Sequence of NDR1(h) (Q15208 whole entry): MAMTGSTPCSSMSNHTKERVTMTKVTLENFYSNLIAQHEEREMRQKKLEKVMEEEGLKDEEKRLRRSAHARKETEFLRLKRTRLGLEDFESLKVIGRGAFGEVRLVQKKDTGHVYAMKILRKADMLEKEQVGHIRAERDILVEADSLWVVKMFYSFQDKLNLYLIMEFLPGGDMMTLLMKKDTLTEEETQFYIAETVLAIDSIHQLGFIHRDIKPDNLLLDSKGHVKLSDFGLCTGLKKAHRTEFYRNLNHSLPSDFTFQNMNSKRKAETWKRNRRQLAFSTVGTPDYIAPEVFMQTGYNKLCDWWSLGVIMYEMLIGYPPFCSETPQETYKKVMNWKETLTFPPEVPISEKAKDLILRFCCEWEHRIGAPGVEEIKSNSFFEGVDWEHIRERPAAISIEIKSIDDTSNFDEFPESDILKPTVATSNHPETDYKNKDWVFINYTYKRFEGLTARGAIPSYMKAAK

NDR2(h) = NDR2(h) (Homo sapiens (Human), UniProt Q9Y2H1); set-up: dose or concentration left out as unconfirmed
OSR1(h) = OSR1(h) (Homo sapiens (Human), UniProt O95747); set-up: dose or concentration left out as unconfirmed
SLK(h) = SLK(h) (Homo sapiens (Human), UniProt Q9H2G2); set-up: dose or concentration left out as unconfirmed
Sequence of SLK(h) (Q9H2G2 whole entry): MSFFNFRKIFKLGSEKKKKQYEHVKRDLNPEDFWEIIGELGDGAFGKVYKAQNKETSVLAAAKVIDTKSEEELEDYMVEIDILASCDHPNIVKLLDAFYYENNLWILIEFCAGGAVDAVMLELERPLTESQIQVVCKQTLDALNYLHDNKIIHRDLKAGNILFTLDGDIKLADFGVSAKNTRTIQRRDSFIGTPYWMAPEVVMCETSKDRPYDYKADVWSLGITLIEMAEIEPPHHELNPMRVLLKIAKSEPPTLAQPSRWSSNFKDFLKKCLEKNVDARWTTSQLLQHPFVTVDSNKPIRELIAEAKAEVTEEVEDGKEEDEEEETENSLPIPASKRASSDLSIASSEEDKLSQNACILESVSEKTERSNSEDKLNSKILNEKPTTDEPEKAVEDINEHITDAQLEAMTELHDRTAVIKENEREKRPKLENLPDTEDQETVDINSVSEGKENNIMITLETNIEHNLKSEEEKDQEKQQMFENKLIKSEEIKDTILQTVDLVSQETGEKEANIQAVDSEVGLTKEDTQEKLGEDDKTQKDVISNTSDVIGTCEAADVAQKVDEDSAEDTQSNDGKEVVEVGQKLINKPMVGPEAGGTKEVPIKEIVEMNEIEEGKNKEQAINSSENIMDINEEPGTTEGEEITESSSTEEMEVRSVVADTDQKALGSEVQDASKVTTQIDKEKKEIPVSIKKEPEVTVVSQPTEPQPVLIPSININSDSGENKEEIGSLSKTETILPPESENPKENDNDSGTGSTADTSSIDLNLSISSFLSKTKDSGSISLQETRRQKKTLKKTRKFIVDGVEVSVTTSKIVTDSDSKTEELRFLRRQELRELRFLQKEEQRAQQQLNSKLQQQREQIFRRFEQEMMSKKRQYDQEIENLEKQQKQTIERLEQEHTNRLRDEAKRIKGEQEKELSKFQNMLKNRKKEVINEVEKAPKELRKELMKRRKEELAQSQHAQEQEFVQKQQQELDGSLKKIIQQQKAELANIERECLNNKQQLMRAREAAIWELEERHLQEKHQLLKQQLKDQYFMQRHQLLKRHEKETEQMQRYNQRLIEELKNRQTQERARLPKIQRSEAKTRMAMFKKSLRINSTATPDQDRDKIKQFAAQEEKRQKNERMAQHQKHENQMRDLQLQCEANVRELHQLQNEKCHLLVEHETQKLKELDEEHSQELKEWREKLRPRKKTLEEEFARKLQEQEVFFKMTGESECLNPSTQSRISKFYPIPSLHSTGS

TLK1(h) = TLK1(h) (Homo sapiens (Human), UniProt Q9UKI8)
TrkA(h) = TrkA(h) (Homo sapiens (Human), UniProt P04629); set-up: dose or concentration left out as unconfirmed
ULK1(h) = ULK1(h) (Homo sapiens (Human), UniProt O75385); set-up: dose or concentration left out as unconfirmed
Sequence of ULK1(h) (O75385 whole entry): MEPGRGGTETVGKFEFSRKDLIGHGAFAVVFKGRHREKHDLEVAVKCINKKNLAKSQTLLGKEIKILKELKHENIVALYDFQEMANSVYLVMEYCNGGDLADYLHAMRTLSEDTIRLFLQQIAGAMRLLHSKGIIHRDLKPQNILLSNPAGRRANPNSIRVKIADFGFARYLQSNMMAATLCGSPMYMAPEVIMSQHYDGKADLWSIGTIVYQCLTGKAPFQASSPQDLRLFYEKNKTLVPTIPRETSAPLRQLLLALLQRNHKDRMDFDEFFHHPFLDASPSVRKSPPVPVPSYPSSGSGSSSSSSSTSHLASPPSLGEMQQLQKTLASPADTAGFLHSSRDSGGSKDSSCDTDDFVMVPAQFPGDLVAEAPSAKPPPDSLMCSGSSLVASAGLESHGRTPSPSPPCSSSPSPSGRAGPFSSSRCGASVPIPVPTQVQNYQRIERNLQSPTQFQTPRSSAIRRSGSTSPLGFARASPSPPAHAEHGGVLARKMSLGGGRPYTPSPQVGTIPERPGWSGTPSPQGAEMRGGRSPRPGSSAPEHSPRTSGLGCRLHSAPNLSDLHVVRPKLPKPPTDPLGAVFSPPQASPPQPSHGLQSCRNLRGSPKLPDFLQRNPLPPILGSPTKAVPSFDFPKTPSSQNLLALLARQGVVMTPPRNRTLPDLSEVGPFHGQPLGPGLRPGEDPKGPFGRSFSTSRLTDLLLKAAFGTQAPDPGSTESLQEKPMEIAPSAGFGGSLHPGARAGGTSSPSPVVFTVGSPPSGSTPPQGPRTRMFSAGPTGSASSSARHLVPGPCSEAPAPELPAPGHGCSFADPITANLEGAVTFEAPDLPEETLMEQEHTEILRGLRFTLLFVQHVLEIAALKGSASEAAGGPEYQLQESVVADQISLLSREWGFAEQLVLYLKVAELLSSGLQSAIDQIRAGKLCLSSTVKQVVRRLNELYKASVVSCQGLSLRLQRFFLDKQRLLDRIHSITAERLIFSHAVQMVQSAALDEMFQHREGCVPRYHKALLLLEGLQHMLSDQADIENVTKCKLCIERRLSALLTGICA

Wee1(h) = Wee1(h) (Homo sapiens (Human), UniProt P30291); set-up: dose or concentration left out as unconfirmed
WNK3(h) = WNK3(h) (Homo sapiens (Human), UniProt Q9BYP7); set-up: dose or concentration left out as unconfirmed

Cc1cc2c(-c3ccc(NC(=O)[C@H](N)CC(C)(C)C)cc3C)ccnc2[nH]1 [Compound F-90, (2R)-2-Amino-4,4-dimethyl-N-[3-methyl-4-(2-methyl-1H-pyrrolo[2,3-b]pyridin-4-yl)phenyl]pentanamide]
% Activity (ALK(h)): 77%
% Activity (Aurora-B(h)): 109%
% Activity (Bmx(h)): 97%
% Activity (BrSK2(h)): 83%
% Activity (BTK(h)): 122%
% Activity (CaMKIIγ(h)): 106%
% Activity (CDK9/cyclin T1(h)): 81%
% Activity (CHK2(h)): 95%
% Activity (CK2(h)): 112%
% Activity (CLIK1(h)): 97%
% Activity (CLK2(h)): 106%
% Activity (DCAMKL3(h)): 86%
% Activity (ErbB4(h)): 94%
% Activity (Fes(h)): 111%
% Activity (Fyn(h)): 100%
% Activity (IGF-1R(h)): 98%
% Activity (IKKα(h)): 98%
% Activity (IR(h)): 94%
% Activity (Lck(h) activated): 119%
% Activity (LIMK1(h)): 70%
% Activity (LOK(h)): 96%
% Activity (MAK(h)): 120%
% Activity (MAPKAP-K2(h)): 72%
% Activity (MST2(h)): 106%
% Activity (NDR1(h)): 100%
% Activity (NDR2(h)): 107%
% Activity (OSR1(h)): 80%
% Activity (SLK(h)): 109%
% Activity (TLK1(h)): 82%
% Activity (TrkA(h)): 105%
% Activity (ULK1(h)): 95%
% Activity (Wee1(h)): 94%
% Activity (WNK3(h)): 85%
